The viability is a per cent measure of how many cells are alive, often set against a control.

Consider 10 molecules from patent US5124339A, “Agents for potentiating the effects of antitumor agents and combating multiple drug resistance” (Burroughs Wellcome Company, priority 1989, dated 1992).

The subject of series [1] is resistant sublines of murine leukemia cells. To be noted: Tsuruo et al., Cancer Res.; cited from earlier work.
Series [2] can be described thus: In vitro cytotoxicity of potentiating agents, MTT absorbance (wildtype KB). As to conditions: human, kb 3-1 cells.
Description: (§1) After 48 hours of incubation at 37° C., the media is changed and cells are treated with actinomycin D at 0.1 nM (3-1) or 20 nM (V-1). The test potentiating agent is introduced to one-half the untreated cultures and one-half the Act D treated cultures at 1 and 10 μM. After 96 hours of additional incubation at 37° C., 0.5 mg/ml MTT dye is added, the cells are incubated for three hours, after which the cells are dissolved in DMSO, and the absorbance is then read at 570 nm.
Series [3] concerns Wildtype KB 3-1 human KB epidermoid carcinoma cells. The description is as above. As to conditions: KB 3-1, 96 h, Act D alone = 1.00.
Description: as §1
The nature of series [4]: In vitro cytotoxicity of potentiating agents, MTT absorbance (wildtype CHO). As to conditions: chinese hamster, auxb1 cells.
The subject of series [5] is Wildtype AUXB1 Chinese hamster ovary cells. The series is described as above. To be noted: AUXB1, 96 h, Act D alone = 1.00.
Series [6] can be described thus: In vitro cytotoxicity of potentiating agents, MTT absorbance (drug resistant KB). As to conditions: human, kb v-1 cells.
Description: as §1
Series [7] has as its system Drug Resistant KB V-1 human KB epidermoid carcinoma cells. The description is as above. To be noted: KB V-1, 96 h, Act D alone = 1.00.
Description: as §1
Series [8] in a line: In vitro cytotoxicity of potentiating agents, MTT absorbance (drug resistant CHO). As to conditions: chinese hamster, c5s32 cells.
The subject of series [9] is Drug Resistant C5S32 Chinese hamster ovary cells. The description is as above. To be noted: for Normalized absorbance (surviving cells), potentiating agent + ACT D, fraction of Act D alone: C5S32, 96 h, Act D alone = 1.00.
The subject of series [10] is Chinese hamster ovary cells (AuxBl and C5S32). The series can be described thus: Reduction in cell number by Act D alone, MTT absorbance. To be noted: Cricetulus griseus, CHO, read-out: reduction in cell number below the value of completely untreated cultures.

Where a name gives a salt, the structure may show the parent alone. *1 amine or outer side, *2 acyl side, *3 side chain or, on linkers, in order; H or OH if unused. Where a SMILES comes first, the peptide text is derived from it. Bridges are numbered along the chain shown (N, C = ends). Roman numbers before positions name the chains, in order. [ ]: non-standard residue; d: D form. Actinocin(9to1) = Cc1c2oc3c(C)ccc(C(=O)[*:1])c3nc-2c(C(=O)[*:2])c(N)c1=O; NMeV = CN[C@H](C(=O)O)C(C)C; Sar = CNCC(=O)O

As to `COc1ccc(CCN(C)CCCC(C#N)(c2ccc(OC)c(OC)c2)C(C)C)cc1OC` (centres unmarked) [Verapamil], in series [1], the “enhance the activity of antitumor agents against resistant sublines of murine leukemia cells” value (from here on “enhance the activity of antitumor agents”) is given as “enhance the activity of antitumor agents against resistant sublines of murine leukemia cells”.

Turning to `COc1ccc(CN(CCN(C)C)c2ccc(Br)cn2)cc1` [(B), N-(5-Bromo-2-pyridyl)-N-(4-methoxybenzyl)-N',N'-dimethyl-1,2-ethanediaminehydrobromide], the viability at 96 h, 1 µM in series [2] worked out at 97%; in [4], 100%; in series [6], 77%; in series [8], 100%. The viability at 96 h, 10 µM in [2] stood at 86%; in series [4], 100%; in [6], 56%; in series [8], 91%. Also, the “Normalized absorbance (surviving cells), potentiating agent + ACT D, fraction of Act D alone” value (“Normalized absorbance … fraction of Act D alone” for short) was determined as 0.89 in series [3] (1 μM + Act D 0.1 nM); 0.92 in [3] (10 μM + Act D 0.1 nM); 1.00 in [5] (1 μM + Act D 0.01 μM); 1.00 in [5] (10 μM + Act D 0.01 μM); 0.85 in series [7] (1 μM + Act D 20 nM); 0.80 in series [7] (10 μM + Act D 20 nM). Further, the figures for the “Normalized absorbance … fraction of Act D alone” value in [9] (1 μM + Act D 0.5 μM) and in [9] (10 μM + Act D 0.5 μM) were 1.00 and 0.56, respectively.

In the case of `CN(C)CCCN1c2ccccc2CCc2ccc(Cl)cc21` [clomipramine], the “enhance the activity of antitumor agents” value in series [1] is on record as “enhance the activity of antitumor agents against resistant sublines of murine leukemia cells”.

Take `COc1ccc(CN(CCN(C)C)c2cccc(/C=C/C(=O)O)n2)cc1` [(A), (E)-3-(6-(N-(2-Dimethylaminoethyl)-4-methoxybenzyl-amino)-2-pyridyl)acrylic acid]: the viability at 96 h, 1 µM was 100% in series [2], 100% in [4], 70% in series [6] and 68% in series [8]. Moreover, the viability at 96 h, 10 µM in [2] is 99%; in series [4], 41%; in series [6], 73%; in series [8] it was 28%. Also, the “Normalized absorbance … fraction of Act D alone” value in series [3] (1 μM + Act D 0.1 nM) turned out to be 0.96; in series [3] (10 μM + Act D 0.1 nM), 0.97; in series [5] (1 μM + Act D 0.01 μM) it was 0.64; in series [5] (10 μM + Act D 0.01 μM) it was 0.05; in [7] (1 μM + Act D 20 nM) it was 0.85; in series [7] (10 μM + Act D 20 nM), 0.80. The “Normalized absorbance … fraction of Act D alone” value stood at 1.00 in series [9] (1 μM + Act D 0.5 μM) and 0.13 in series [9] (10 μM + Act D 0.5 μM).

As for `Cc1c2oc3c(C)ccc(C(=O)N[C@@H]4C(=O)N[C@H](C(C)C)C(=O)N5CCC[C@H]5C(=O)N(C)CC(=O)N(C)[C@@H](C(C)C)C(=O)O[C@@H]4C)c3nc-2c(C(=O)N[C@@H]2C(=O)N[C@H](C(C)C)C(=O)N3CCC[C@H]3C(=O)N(C)CC(=O)N(C)[C@@H](C(C)C)C(=O)O[C@@H]2C)c(N)c1=O` [Actinomycin D, reference compound] (I: T[dV]P[Sar][NMeV] / II: T[dV]P[Sar][NMeV]; ester I:1-I:C, II:1-II:C; linker I:N-II:N via Actinocin(9to1)), the inhibition at 0.01 µM in series [10] was 10 to 20%. Also, the “resistance of C5S32 cells to Actinomycin D compared to the parental AuxBI cell line” value in series [9] (C5S32 vs parental AuxBI) is reported as “about 200 fold”.

Consider `COC(=O)C1=C(C)NC(C)=C(C(=O)OCCN(C)Cc2ccccc2)C1c1cccc([N+](=O)[O-])c1` (centres unmarked) [nicardipine], for which the “enhance the activity of antitumor agents” value in series [1] was “enhance the activity of antitumor agents against resistant sublines of murine leukemia cells”.

On to `COc1ccc([C@@H]2Sc3ccccc3N(CCN(C)C)C(=O)[C@@H]2OC(C)=O)cc1` [diltiazem], for which the “enhance the activity of antitumor agents” value in series [1] is recorded as “enhance the activity of antitumor agents against resistant sublines of murine leukemia cells”.

For `C=C[C@H]1C[N@@]2CC[C@H]1C[C@@H]2[C@@H](O)c1ccnc2ccc(OC)cc12` [quinidine], the “enhance the activity of antitumor agents” value in series [1] is recorded as “enhance the activity of antitumor agents against resistant sublines of murine leukemia cells”.

Take `CN1CCN(CCCN2c3ccccc3Sc3ccc(C(F)(F)F)cc32)CC1` [trifluoperazine]: the “enhance the activity of antitumor agents” value in series [1] is “enhance the activity of antitumor agents against resistant sublines of murine leukemia cells”.

For the molecule `CCN(CC)CCn1c(=O)c(Cc2ccc(OC)cc2)nc2ccccc21` [caroverine], the “enhance the activity of antitumor agents” value in series [1] is given as “enhance the activity of antitumor agents against resistant sublines of murine leukemia cells”.
